Laboratory results as given in publication PMC2872082 (Journal of the American Chemical Society, 2010).

Molecular target: T1, MshA (CgMshA) (Corynebacterium glutamicum, UniProt Q8NTA6)
T1 sequence (Q8NTA6 1-418): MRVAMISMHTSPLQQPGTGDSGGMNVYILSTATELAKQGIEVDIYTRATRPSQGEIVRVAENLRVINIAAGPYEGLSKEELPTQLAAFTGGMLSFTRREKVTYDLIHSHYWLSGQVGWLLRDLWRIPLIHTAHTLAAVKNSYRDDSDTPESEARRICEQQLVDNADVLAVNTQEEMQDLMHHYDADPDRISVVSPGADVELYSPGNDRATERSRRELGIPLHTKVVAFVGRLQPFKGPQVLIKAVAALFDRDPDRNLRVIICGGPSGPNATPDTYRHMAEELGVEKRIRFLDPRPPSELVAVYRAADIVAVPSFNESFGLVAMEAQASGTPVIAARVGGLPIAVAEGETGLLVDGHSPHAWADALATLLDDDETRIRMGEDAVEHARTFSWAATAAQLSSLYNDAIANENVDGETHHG
Experiment: steady-state enzyme inhibition kinetics and slow-binding progress curves
Type: biochemical

For `CC(=O)N[C@H]1[C@@H](OP(=O)(O)OP(=O)(O)OC[C@H]2O[C@@H](n3ccc(=O)[nH]c3=O)[C@H](O)[C@@H]2O)O[C@](F)(CO)[C@@H](O)[C@@H]1O` [UDP-(5F)-GlcNAc], the Ki was 1400 ± 200 nM.
